According to PubChem BioAssay (NCI):
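Dose response: 5 concentrations. Exposure: 48 h. Format: 96-well plates. Endpoint: linear interpolation; highest concentration if not reached. GI50 = concentration required for 50% inhibition of growth. Definition used: TGI = concentration required for complete inhibition of growth.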

Key:
Experiment in all cases: DTP human tumour cell line panel, 48 h
[1] = tested on: HCT-15 colon
[2] = tested on: T-47D breast
[3] = tested on: RXF 393 renal
[4] = tested on: MALME-3M melanoma
[5] = tested on: HOP-62 NSCLC
[6] = tested on: MOLT-4 leukemia
[7] = tested on: HCT-116 colon
[8] = tested on: HL-60(TB) leukemia
[9] = tested on: KM12 colon
[10] = tested on: 786-0 renal
[11] = tested on: MDA-MB-435
[12] = tested on: SF-268 CNS
[13] = tested on: M14 melanoma
[14] = tested on: UACC-257 melanoma
[15] = tested on: OVCAR-5 ovarian
[16] = tested on: COLO 205 colon
[17] = tested on: ACHN renal
[18] = tested on: NCI-H460 lung
[19] = tested on: SN12C renal
[20] = tested on: MCF7 breast
[21] = tested on: PC-3 prostate
[22] = tested on: K-562 leukemia
[23] = tested on: A549 NSCLC
[24] = tested on: MDA-MB-231 breast
[25] = tested on: SNB-75 CNS
[26] = tested on: CCRF-CEM leukemia
[27] = tested on: A498 renal
[28] = tested on: CAKI-1 renal
[29] = tested on: HS 578T breast
[30] = tested on: OVCAR-4 ovarian
[31] = tested on: SK-MEL-28 melanoma
[32] = tested on: U251 CNS
[33] = tested on: NCI/ADR-RES ovarian
[34] = tested on: SK-OV-3 ovarian
[35] = tested on: SNB-19 CNS
[36] = tested on: SK-MEL-5 melanoma
[37] = tested on: EKVX NSCLC
[38] = tested on: TK-10 renal
[39] = tested on: UACC-62 melanoma
[40] = tested on: SF-295 CNS
[41] = tested on: SK-MEL-2 melanoma
[42] = tested on: SF-539 CNS
[43] = tested on: NCI-H226 lung
[44] = tested on: HOP-92 NSCLC
[45] = tested on: IGROV1 ovarian
[46] = tested on: NCI-H23 lung
[47] = tested on: UO-31 renal
[48] = tested on: OVCAR-8 ovarian
[49] = tested on: DU-145 prostate
[50] = tested on: HCC-2998 colon
[51] = tested on: RPMI-8226 leukemia
[52] = tested on: NCI-H522 lung
[53] = tested on: BT-549 breast
[54] = tested on: OVCAR-3 ovarian
[55] = tested on: SR leukemia
[56] = tested on: SW-620 colon
[57] = tested on: HT29 colon
[58] = tested on: LOX IMVI melanoma

`C=CC(=O)N1CCC([C@@H]2CCNc3c(C(N)=O)c(-c4ccc(Oc5ccccc5)cc4)nn32)CC1` gave a GI50 [1] of 15.3 µM, a TGI [1] of 46.5 µM and a GI50 [2] of 3.49 µM. For the same compound, the TGI [2] was > 87.1 µM, the GI50 [3] was 9.05 µM and the TGI [3] was 25.5 µM. The GI50 [4] was 11.6 µM, the TGI [4] was 26.8 µM and the GI50 [5] was 16.9 µM. For the same compound, the TGI [5] was > 75.1 µM, the GI50 [6] was 15.9 µM and the TGI [6] was > 93.6 µM. It also gave a GI50 [7] of 17.1 µM, a TGI [7] of 39.3 µM and a GI50 [8] of 15.5 µM. For the same compound, the TGI [8] was 49.7 µM, the GI50 [9] was 31.5 µM and the TGI [9] was 98.9 µM. It also gave a GI50 [10] of 12.9 µM, a TGI [10] of 53.1 µM and a GI50 [11] of 17.8 µM. It also gave a TGI [11] of 44.6 µM, a GI50 [12] of 9.07 µM and a TGI [12] of 34.4 µM. The GI50 [13] was 14.4 µM, the TGI [13] was 31.9 µM and the GI50 [14] was 16.5 µM. The TGI [14] was 50.4 µM, the GI50 [15] was 22.2 µM and the TGI [15] was > 100 µM. The GI50 [16] was 22.1 µM, the TGI [16] was > 74.3 µM and the GI50 [17] was 2.34 µM. The TGI [17] was > 62.6 µM, the GI50 [18] was 29.8 µM and the TGI [18] was > 89.7 µM. The GI50 [19] was 12.1 µM, the TGI [19] was 80.4 µM and the GI50 [20] was 23.1 µM. For the same compound, the TGI [20] was > 100 µM, the GI50 [21] was 20.5 µM and the TGI [21] was 69.3 µM. For the same compound, the GI50 [22] was 25.3 µM, the TGI [22] was > 100 µM and the GI50 [23] was 13.2 µM. For the same compound, the TGI [23] was > 100 µM, the GI50 [24] was 18.4 µM and the TGI [24] was 56.4 µM. It also gave a GI50 [25] of 5.39 µM, a TGI [25] of 30.6 µM and a GI50 [26] of 19.4 µM. The TGI [26] was > 73.2 µM, the GI50 [27] was 1.67 µM and the TGI [27] was 9.25 µM. It also gave a GI50 [28] of 10.4 µM, a TGI [28] of 44.7 µM and a GI50 [29] of 14.7 µM. The TGI [29] was 46.8 µM, the GI50 [30] was 13.5 µM and the TGI [30] was 97.2 µM. The GI50 [31] was 15.6 µM, the TGI [31] was 30.6 µM and the GI50 [32] was 17.6 µM. The TGI [32] was > 77.1 µM, the GI50 [33] was 17.8 µM and the TGI [33] was > 96.6 µM. For the same compound, the GI50 [34] was 0.338 µM, the TGI [34] was 14.2 µM and the GI50 [35] was 16.9 µM. For the same compound, the TGI [35] was > 100 µM, the GI50 [36] was 14.5 µM and the TGI [36] was 28.7 µM. For the same compound, the GI50 [37] was 2.35 µM, the TGI [37] was > 100 µM and the GI50 [38] was 0.385 µM. The TGI [38] was 7.77 µM, the GI50 [39] was 11.4 µM and the TGI [39] was 26.6 µM. The GI50 [40] was 22.4 µM, the TGI [40] was > 76.6 µM and the GI50 [41] was 18.2 µM. The TGI [41] was 40 µM, the GI50 [42] was 16.8 µM and the TGI [42] was 56.4 µM. For the same compound, the GI50 [43] was 11.9 µM, the TGI [43] was 42.5 µM and the GI50 [44] was 13.6 µM. For the same compound, the TGI [44] was 43.7 µM, the GI50 [45] was 0.912 µM and the TGI [45] was 16.7 µM. It also gave a GI50 [46] of 17.5 µM, a TGI [46] of 43.2 µM and a GI50 [47] of 2.96 µM. For the same compound, the TGI [47] was > 66.4 µM, the GI50 [48] was 13.8 µM and the TGI [48] was 74.2 µM. It also gave a GI50 [49] of 6.82 µM, a TGI [49] of 61.3 µM and a GI50 [50] of 14.2 µM. The TGI [50] was 29.6 µM, the GI50 [51] was 14.5 µM and the TGI [51] was 42.8 µM. It also gave a GI50 [52] of 3.06 µM, a TGI [52] of 20.3 µM and a GI50 [53] of 11.9 µM. For the same compound, the TGI [53] was 31 µM, the GI50 [54] was 11 µM and the TGI [54] was 32 µM. For the same compound, the GI50 [55] was 23.9 µM, the TGI [55] was > 100 µM and the GI50 [56] was 19.2 µM. For the same compound, the TGI [56] was 46.1 µM, the GI50 [57] was 16.5 µM and the TGI [57] was > 71.1 µM. For the same compound, the GI50 [58] was 15.2 µM and the TGI [58] was 36.3 µM.

With `Cc1ccc(N=Nc2c(N)nn(-c3ccccc3)c2N)cc1` the GI50 [1] was 0.612 µM, the TGI [1] was > 100 µM and the GI50 [2] was 1.74 µM. For the same compound, the TGI [2] was > 100 µM, the GI50 [3] was 2.9 µM and the TGI [3] was > 100 µM. For the same compound, the TGI [4] was > 100 µM, the GI50 [5] was 2.49 µM and the GI50 [6] was 1.07 µM. The TGI [6] was > 100 µM, the GI50 [7] was 0.542 µM and the TGI [7] was > 100 µM. The GI50 [8] was 0.638 µM, the TGI [8] was > 21.6 µM and the GI50 [9] was 0.626 µM. For the same compound, the TGI [9] was > 100 µM, the GI50 [10] was 0.755 µM and the GI50 [11] was 0.177 µM. The TGI [11] was 0.568 µM, the GI50 [12] was 4.7 µM and the TGI [12] was > 100 µM. For the same compound, the GI50 [13] was 1.04 µM, the TGI [13] was > 100 µM and the GI50 [14] was 42.9 µM. For the same compound, the TGI [14] was > 100 µM, the GI50 [16] was 1.21 µM and the TGI [16] was > 26.9 µM. The GI50 [17] was 11.6 µM, the TGI [17] was > 100 µM and the GI50 [18] was 1.07 µM. For the same compound, the TGI [18] was > 100 µM, the GI50 [19] was 7.66 µM and the TGI [19] was > 100 µM. The GI50 [20] was 0.67 µM, the TGI [20] was > 100 µM and the GI50 [21] was 1.53 µM. The TGI [21] was 6.17 µM, the GI50 [22] was 0.256 µM and the GI50 [23] was 2.13 µM. For the same compound, the TGI [23] was > 100 µM, the GI50 [24] was 7.41 µM and the TGI [24] was > 100 µM. The GI50 [25] was 2.3 µM, the TGI [25] was > 78.3 µM and the GI50 [26] was 2.06 µM. For the same compound, the GI50 [27] was 1.95 µM, the TGI [27] was > 28.7 µM and the GI50 [28] was 1.28 µM. The TGI [28] was > 23.1 µM, the GI50 [29] was 1.94 µM and the TGI [29] was > 31.4 µM. The GI50 [30] was > 40.7 µM, the TGI [30] was > 100 µM and the GI50 [31] was 8.97 µM. For the same compound, the TGI [31] was > 100 µM, the GI50 [32] was 0.762 µM and the TGI [32] was > 100 µM. The GI50 [33] was 0.412 µM, the TGI [33] was > 20.6 µM and the GI50 [34] was 2.63 µM. For the same compound, the TGI [34] was > 100 µM, the GI50 [35] was 6.23 µM and the TGI [35] was > 100 µM. The GI50 [36] was 1.65 µM, the TGI [36] was > 100 µM and the GI50 [37] was 3.72 µM. For the same compound, the TGI [37] was > 100 µM, the TGI [38] was > 100 µM and the GI50 [39] was 0.874 µM. The TGI [39] was > 100 µM, the GI50 [40] was 1.83 µM and the TGI [40] was > 57.1 µM. For the same compound, the GI50 [41] was 0.464 µM, the GI50 [42] was 1.78 µM and the TGI [42] was > 22.8 µM. The GI50 [43] was 59.4 µM, the TGI [43] was > 100 µM and the GI50 [44] was 3.44 µM. For the same compound, the TGI [44] was 9.05 µM, the GI50 [45] was 4.5 µM and the TGI [45] was > 100 µM. For the same compound, the GI50 [46] was 2.29 µM, the GI50 [47] was 7.97 µM and the TGI [47] was > 100 µM. For the same compound, the GI50 [48] was 4.27 µM, the TGI [48] was > 100 µM and the GI50 [49] was 3.44 µM. For the same compound, the TGI [49] was > 100 µM, the GI50 [50] was 0.912 µM and the TGI [50] was > 100 µM. It also gave a GI50 [51] of 1.61 µM, a TGI [51] of 42 µM and a GI50 [52] of 1 µM. The TGI [52] was > 100 µM, the GI50 [53] was 0.737 µM and the TGI [53] was > 100 µM. It also gave a GI50 [54] of 0.705 µM, a TGI [54] of 3.58 µM and a GI50 [55] of 0.378 µM. For the same compound, the TGI [55] was > 100 µM, the GI50 [56] was 0.493 µM and the TGI [56] was > 100 µM. The GI50 [57] was 0.353 µM, the GI50 [58] was 5.78 µM and the TGI [58] was > 100 µM.
